The results in this text go back to ChEMBL document CHEMBL4033678, “A fragment-based approach leading to the discovery of a novel binding site and the selective CK2 inhibitor CAM4066” (Bioorg Med Chem, 2017).

Activity calls are given as the source filed them. No cut-off for these calls is given here.

The target in the assay is Casein kinase II subunit alpha (Homo sapiens) (UniProt P68400).
Chain of Casein kinase II subunit alpha (Homo sapiens) (P68400 whole entry, looked up): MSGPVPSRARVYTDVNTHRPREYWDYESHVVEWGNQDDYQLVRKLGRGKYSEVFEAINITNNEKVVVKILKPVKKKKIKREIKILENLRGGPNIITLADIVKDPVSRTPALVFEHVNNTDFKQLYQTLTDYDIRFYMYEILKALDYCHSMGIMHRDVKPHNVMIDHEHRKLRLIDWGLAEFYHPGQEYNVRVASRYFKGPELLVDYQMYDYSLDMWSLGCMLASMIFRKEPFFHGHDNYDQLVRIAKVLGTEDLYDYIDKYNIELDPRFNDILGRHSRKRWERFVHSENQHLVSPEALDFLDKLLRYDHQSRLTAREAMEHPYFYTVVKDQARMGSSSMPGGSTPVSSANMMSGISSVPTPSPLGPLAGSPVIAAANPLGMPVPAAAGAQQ
For the compound `O=C(O)c1cc(=O)c2ccccc2o1`, the deltaTm result was “inactive”.
As usually defined, the ΔTm is the change in melting temperature against a reference sample. With `O=C(O)c1ccc(O)cc1O`, the ΔTm is 3.2 °C.
Still for that read-out and setting: under `O=C(O)c1ccc(O)c(O)c1` stands 2.4 °C.
Take `O=C(O)C(=O)Cc1ccccc1`: the shift in melting temperature (ΔTm) was -0.6 °C.
Regarding `O=C(O)Cc1cc(=O)oc2ccccc12`, the deltaTm entry was “inactive”.
As to `O=C(O)c1ccc[nH]c1=O`, the thermal shift (ΔTm) is -1.8 °C.
On the same count and under the same terms, the result for `O=C(O)CCc1ccc(O)cc1` reads 3.1 °C.
`O=C(O)c1ccc2ccccc2n1`: the deltaTm result is “inactive”.
On to `OC1CCC(N2CCNCC2)CC1` (stereo not drawn), for which the shift in melting temperature (ΔTm) worked out at 0.8 °C.
Turning to `NC(=O)c1ccc(O)cc1`, the deltaTm result is “inactive”.
On the same count and under the same terms, the result for `O=C(O)c1cc2cc(O)ccc2[nH]1` reads “inactive”.
For `CCCCOC(=O)N1CCC(N)CC1`, the shift in melting temperature (ΔTm) was 0.3 °C.
Regarding `Nc1cc(Br)cnc1N`, the deltaTm result is “inactive”.
For the compound `Cc1ccc(O)c(C(=O)O)c1`, the shift in melting temperature (ΔTm) came to 4.1 °C.
`NNc1ccc(C(=O)O)cc1`: the shift in melting temperature (ΔTm) stood at 3.8 °C.
In the case of `O=C(O)c1cccc(C(=O)O)n1`, the ΔTm was -0.5 °C.
On the same count and under the same terms, the result for `Nc1cccc(C(=O)O)c1` reads 0 °C; that for `O=C(O)c1cc2cc(F)ccc2[nH]1`, 4.1 °C.
With `O=C(O)c1ccc2cc[nH]c2c1`, the ΔTm turned out to be 3 °C.
As to `COc1cc(CC(=O)O)ccc1O`, the deltaTm entry was “inactive”.
For the compound `O=c1cc(O)c2ccccc2o1`, the ΔTm turned out to be 3.8 °C.
On the same count and under the same terms, under `O=C(O)Cc1ccc(Cl)c(Cl)c1` stands 0.7 °C; under `Cc1cc(C(=O)O)ccc1N`, 0.5 °C.
